{
  "source": "paper PMC3871618",
  "about": "(PLoS ONE, 2013)",
  "key": {"MDCKII parent cells": {"tested_on": "MDCKII parent cells", "experiment": "XTT cytotoxicity, CDKi + DNR combination (Chou-Talalay)", "assay_type": "cell-based", "conditions": "72 h", "description": "(§1) 1×10^4 MDCKII-ABCB1, 1×10^4 MDCKII parent, 2×10^4 HCT-8, or 2×10^4 HepG2 cells were grown in 96-well culture plates and incubated for 24 h. Individual CDKi diluted with growth medium were added to the exponentially growing cells and the resulting mixtures were incubated for 72 h at 37°C, 5% CO2. Cytotoxicity was then assessed using the XTT assay as follows: cells were incubated with 0.167 mg/mL XTT and 4 µM PMS in Opti-MEM for 2 h. The absorbance of the soluble formazan released was measured at 470 nm on a microplate reader (Tecan, Männedorf, Switzerland).\n(§2) The combination index (CI) method of Chou-Talalay, based on the median-effect equation, was used to calculate combined drug effects. This approach offers quantitative definitions for additive, synergistic and antagonistic effects (CI values of 0.9–1.1, <0.9, and >1.1, respectively). Combination experiments were performed in a constant-ratio experimental design as recommended for the most efficient data analysis, and the generated data were used to quantify dose-reduction indices (DRI) for pairs of the tested drugs. DRI represents the fold-change of a focal effect when individual agents are used simultaneously relative to their separate effects, and their activity is synergistic if DRI > 1. […] The data acquired from these drug combination experiments were analyzed using CompuSyn ver. 3.0.1 software (ComboSyn Inc., Paramus, NJ, USA)."}, "HCT-8 cells": {"tested_on": "HCT-8 cells", "experiment": "XTT cytotoxicity, CDKi + DNR combination (Chou-Talalay)", "conditions": "HCT-8, 72 h", "description": "as §1, §2"}, "HepG2 cells": {"tested_on": "HepG2 cells", "experiment": "XTT cytotoxicity, CDKi + DNR combination (Chou-Talalay)", "assay_type": "cell-based, human", "conditions": "HepG2, 72 h", "description": "as §1, §2"}, "ABCB1 transporter": {"target": "T1, ABCB1 transporter (Homo sapiens, UniProt P08183)", "T1 construct": "expressed in transfected cells; host or cells: MDCKII (canine kidney) cells transduced with human ABCB1, from Prof; Piet Borst and Dr. Alfred Schinkel (The Netherlands Cancer Institute)", "T1 sequence (P08183 whole entry)": "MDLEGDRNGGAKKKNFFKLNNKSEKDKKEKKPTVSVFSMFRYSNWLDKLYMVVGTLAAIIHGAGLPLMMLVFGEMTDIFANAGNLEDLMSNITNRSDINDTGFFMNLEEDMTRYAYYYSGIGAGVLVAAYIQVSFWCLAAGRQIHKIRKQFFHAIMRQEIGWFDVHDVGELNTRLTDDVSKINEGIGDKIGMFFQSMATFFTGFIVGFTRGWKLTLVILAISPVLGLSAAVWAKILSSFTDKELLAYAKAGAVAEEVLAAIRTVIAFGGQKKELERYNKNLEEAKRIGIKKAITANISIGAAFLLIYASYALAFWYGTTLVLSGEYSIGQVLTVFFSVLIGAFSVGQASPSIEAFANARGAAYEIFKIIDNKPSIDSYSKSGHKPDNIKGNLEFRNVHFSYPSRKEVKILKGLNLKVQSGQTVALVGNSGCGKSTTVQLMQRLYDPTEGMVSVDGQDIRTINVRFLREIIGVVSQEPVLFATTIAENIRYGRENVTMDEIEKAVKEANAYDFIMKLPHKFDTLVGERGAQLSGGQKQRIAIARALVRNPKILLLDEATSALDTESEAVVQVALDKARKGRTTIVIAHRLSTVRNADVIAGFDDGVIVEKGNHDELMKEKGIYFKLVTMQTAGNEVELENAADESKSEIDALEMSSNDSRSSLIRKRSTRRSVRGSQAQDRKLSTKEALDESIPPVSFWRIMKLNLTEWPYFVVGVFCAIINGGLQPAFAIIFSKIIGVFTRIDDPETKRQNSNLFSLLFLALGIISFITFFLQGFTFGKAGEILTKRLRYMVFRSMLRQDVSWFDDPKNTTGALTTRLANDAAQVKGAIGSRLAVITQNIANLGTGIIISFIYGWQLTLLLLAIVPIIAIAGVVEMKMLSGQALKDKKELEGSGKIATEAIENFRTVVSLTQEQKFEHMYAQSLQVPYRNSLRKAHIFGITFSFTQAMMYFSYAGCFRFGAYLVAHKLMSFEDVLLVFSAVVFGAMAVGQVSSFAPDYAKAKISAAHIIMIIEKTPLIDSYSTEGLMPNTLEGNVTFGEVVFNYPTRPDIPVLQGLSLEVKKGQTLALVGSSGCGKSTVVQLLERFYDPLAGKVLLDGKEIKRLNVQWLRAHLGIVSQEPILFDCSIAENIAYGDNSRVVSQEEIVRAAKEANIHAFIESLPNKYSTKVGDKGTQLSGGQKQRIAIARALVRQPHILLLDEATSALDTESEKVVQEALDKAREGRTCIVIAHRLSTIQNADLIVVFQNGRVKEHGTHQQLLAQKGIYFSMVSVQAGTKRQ", "experiment": "HOE (Hoechst 33342) accumulation in MDCKII-ABCB1 cells", "assay_type": "cell-based", "conditions": "8 µM HOE, end-point fluorescence at 30 min, 50% of each compound's own maximum inhibitory activity, read-out: IC50, inhibition of ABCB1-mediated efflux of HOE", "description": "(§3) To investigate the inhibitory activity of CDKi on ABCB1, the intracellular accumulation of HOE, a fluorescent ABCB1 substrate, was examined in both MDCKII-ABCB1 and MDCKII parent cell lines in the presence and absence of the tested compounds. The reduction in fluorescence intensity in ABCB1-transduced cells indicates the efflux activity of the ABCB1 transporter, its inhibition increases HOE accumulation and thus the intracellular fluorescence.\n(§4) The assay was conducted as previously described and optimized for application in ABCB1-expressing cells. Briefly, MDCKII-ABCB1 and MDCKII parent cells were seeded at 5×10^4 cells per well on a 96-well culture plate and used for accumulation experiments after 24 h cultivation. The medium was removed and cells were washed twice with prewarmed phosphate buffered saline (PBS) at pH 7.4."}, "ABCB1 [1]": {"target": "T2, ABCB1 (Homo sapiens, UniProt P08183)", "T2 sequence (P08183 whole entry)": "as above", "experiment": "ABCB1-ATPase inhibition assay (verapamil-stimulated), Sf9 membranes", "assay_type": "biochemical", "parameters": "purchased Solvo Biotechnology (Szeged, Hungary); host or cells: Sf9 insect cell membranes", "conditions": "140 nM to 300 µM", "description": "(§5) The drug efflux function of ABCB1 is linked to hydrolysis of ATP by ATPase, which is stimulated in the presence of ABCB1 substrates. In the activation assay, transported substrates can stimulate baseline vanadate-sensitive ATPase activity, whereas in the inhibition assay, which is carried out in the presence of a known activator of the transporter, inhibitors may reduce the maximal vanadate-sensitive ATPase activity. ATPase activity was measured by assessing the amount of phosphate liberated from ATP by the ABCB1 transporter using the […] ATPase kit for ABCB1 according to the manufacturer’s instructions. For this purpose, Sf9 cell membranes (4 µg protein per well) were mixed with each of the test compounds (singly) in solutions with concentrations ranging from 140 nM to 300 µM, then incubated at 37°C for 10 min in the presence or absence of 1.2 mM sodium orthovanadate. The reaction was started by adding 10 mM ATP solution (magnesium salt) to the reaction mixture, stopped 10 min later, and the absorbance at 590 nm was measured after a further 30 min incubation (GeniosPlus apparatus; Tecan, Männedorf, Switzerland). The ATPase activity in each sample was determined as the difference in liberated amounts of phosphate measured in the presence and absence of 1.2 mM sodium orthovanadate. Phosphate standards were prepared in each plate and verapamil served as a positive control for ABCB1 stimulation. The results are expressed as vanadate-sensitive ATPase activities."}, "ABCB1 [2]": {"target": "T2, ABCB1", "experiment": "ABCB1-ATPase activation assay (baseline), Sf9 membranes", "assay_type": "biochemical", "parameters": "purchased Solvo Biotechnology (Szeged, Hungary); host or cells: Sf9 insect cell membranes", "conditions": "from ATPase activity in Sf9 membranes overexpressing human ABCB1", "description": "as §5"}, "ABCB1 [3]": {"target": "T2, ABCB1", "experiment": "HOE (Hoechst 33342) accumulation in MDCKII-ABCB1 cells", "assay_type": "cell-based", "parameters": "expressed in transfected cells; host or cells: MDCKII (canine kidney) cells transduced with human ABCB1, from Prof; Piet Borst and Dr. Alfred Schinkel (The Netherlands Cancer Institute)", "conditions": "human, probe Hoechst 33342 (HOE), 8 µM, CDKi applied at their respective IC50 concentrations, % as strongly as LY, read-out: Inhibition of HOE efflux relative to LY", "description": "as §3, §4"}, "[4]": {"conditions": "DNR combined with Olomoucine II, ratio 1∶9.2"}, "[5]": {"conditions": "DNR combined with Purvalanol A, ratio 1∶11.7"}, "[6]": {"conditions": "DNR combined with Roscovitine, ratio 1∶12.3"}, "[7]": {"conditions": "DNR combined with Olomoucine II, ratio 1∶6.3"}, "[8]": {"conditions": "DNR combined with Purvalanol A, ratio 1∶17.7"}, "[9]": {"conditions": "DNR combined with Roscovitine, ratio 1∶17.0"}, "[10]": {"conditions": "DNR combined with Olomoucine II, ratio 1∶20.5"}, "[11]": {"conditions": "DNR combined with Roscovitine, ratio 1∶47.0"}},
  "data": [
    {"smiles": "COc1cccc2c1C(=O)c1c(O)c3c(c(O)c1C2=O)C[C@@](O)(C(C)=O)C[C@@H]3O[C@H]1C[C@H](N)[C@H](O)[C@H](C)O1", "note": "[DNR, daunorubicin]", "values": [
      {"measurement": "DRI at Fa 0.5, drug I (DNR)", "setting": "MDCKII parent cells; [4]", "value": "2.38±0.08"},
      {"measurement": "DRI at Fa 0.75, drug I (DNR)", "setting": "MDCKII parent cells; [4]", "value": "3.07±0.06"},
      {"measurement": "DRI at Fa 0.9, drug I (DNR)", "setting": "MDCKII parent cells; [4]", "value": "3.96±0.03"},
      {"measurement": "DRI at Fa 0.5, drug I (DNR)", "setting": "MDCKII parent cells; [5]", "value": "2.25±0.03"},
      {"measurement": "DRI at Fa 0.75, drug I (DNR)", "setting": "MDCKII parent cells; [5]", "value": "2.84±0.05"},
      {"measurement": "DRI at Fa 0.9, drug I (DNR)", "setting": "MDCKII parent cells; [5]", "value": "3.60±0.09"},
      {"measurement": "DRI at Fa 0.75, drug I (DNR)", "setting": "MDCKII parent cells; [6]", "value": "2.74±0.06"},
      {"measurement": "DRI at Fa 0.9, drug I (DNR)", "setting": "MDCKII parent cells; [6]", "value": "3.57±0.09"},
      {"measurement": "DRI at Fa 0.5, drug I (DNR)", "setting": "HCT-8 cells; [7]", "value": "3.11±0.13"},
      {"measurement": "DRI at Fa 0.75, drug I (DNR)", "setting": "HCT-8 cells; [7]", "value": "4.14 ±0.08"},
      {"measurement": "DRI at Fa 0.9, drug I (DNR)", "setting": "HCT-8 cells; [7]", "value": "5.45±0.02"},
      {"measurement": "DRI at Fa 0.75, drug I (DNR)", "setting": "HCT-8 cells; [8]", "value": "3.12±0.03"},
      {"measurement": "DRI at Fa 0.9, drug I (DNR)", "setting": "HCT-8 cells; [8]", "value": "4.36±0.13"},
      {"measurement": "DRI at Fa 0.5, drug I (DNR)", "setting": "HCT-8 cells; [9]", "value": "2.63±0.02"},
      {"measurement": "DRI at Fa 0.75, drug I (DNR)", "setting": "HCT-8 cells; [9]", "value": "3.96±0.05"},
      {"measurement": "DRI at Fa 0.9, drug I (DNR)", "setting": "HCT-8 cells; [9]", "value": "5.96±0.17"},
      {"measurement": "DRI at Fa 0.75, drug I (DNR)", "setting": "HepG2 cells; [10]", "value": "2.55±0.03"},
      {"measurement": "DRI at Fa 0.9, drug I (DNR)", "setting": "HepG2 cells; [10]", "value": "4.68±0.09"},
      {"measurement": "DRI at Fa 0.9, drug I (DNR)", "setting": "HepG2 cells; DNR combined with Purvalanol A, ratio 1∶43.0", "value": "4.05±0.08"},
      {"measurement": "DRI at Fa 0.75, drug I (DNR)", "setting": "HepG2 cells; [11]", "value": "2.72±0.02"},
      {"measurement": "DRI at Fa 0.9, drug I (DNR)", "setting": "HepG2 cells; [11]", "value": "5.02±0.03"}
    ]},
    {"smiles": "CN1CC[C@H](c2c(O)cc(O)c3c(=O)cc(-c4ccccc4Cl)oc23)[C@H](O)C1", "note": "[flavopiridol]", "values": [
      {"measurement": "IC50", "setting": "ABCB1 transporter", "value": 16.9, "unit": "µM"},
      {"measurement": "Effect on verapamil-stimulated vanadate-sensitive ATPase activity of ABCB1", "setting": "ABCB1 [1]", "value": "only slightly reduced it at the highest tested concentration"},
      {"measurement": "ABCB1 substrate classification", "setting": "ABCB1 [2]", "value": "non-substrates of ABCB1"},
      {"measurement": "inhibition at 30 min", "setting": "ABCB1 [3]", "value": 31, "unit": "%"}
    ]}
  ]
}
